Where two headings read alike, the source gives them in different places.
How the values were obtained:
[1] = Plasma carbidopa and levodopa after SINEMET CR alone or after carbidopa pre-dosing; assay type: in vivo; settings: fed beagle dogs; for AUC(0-t): beagle, dog, plasma, po, read-out: AUC0-24; for increase in AUC0-24 / increase in peak concentrations: carbidopa pre-dosing + SINEMET CR vs SINEMET CR alone
Description: The following experiment was designed to determine if effective levodopa concentration in vivo is increased at the presence of a higher ratio of carbidopa to levodopa (as compared to that used in conventional therapy).
SINEMET® CR tablets (50 mg carbidopa/200 mg levodopa) were administered to fed beagle dogs either alone or after pre-dosing with 12.5 mg and 25 mg of carbidopa, and plasma concentrations of carbidopa and levodopa were measured over time (data not shown).

[2] = in vivo; cited from earlier work
[3] = doses of 400 mg per day; cited from earlier work
[4] = Carbidopa 12.5 mg pre-dose + SINEMET CR
[5] = Carbidopa 25 mg pre-dose + SINEMET CR
[6] = SINEMET CR (50 mg carbidopa/200 mg levodopa) alone

Q: Which AUC(0-t) [1, 4] does the source give for `C[C@@](Cc1ccc(O)c(O)c1)(NN)C(=O)O` [Carbidopa] here?
A: The AUC(0-t) was 592 ± 303 ng·h/mL.

Q: What about the AUC(0-t) [1, 5] of the same compound?
A: Its AUC(0-t) is 956 ± 534 ng·h/mL.

Q: What about the AUC(0-t) [1, 6] of the same compound?
A: The AUC(0-t) was 215 ± 43 ng·h/mL.

Q: What about the “increase in AUC0-24” value [1] of the same compound?
A: The value was about 100%.

Q: And the “increase in peak concentrations” value [1]?
A: The value was about 100%.

Q: What about the “fraction of an administered dose absorbed” value [2] of the same compound?
A: Its value is “About 70%”.

Q: And the adverse effects [3]?
A: Its adverse effects is “fails to elicit adverse effects”.

Q: Which AUC(0-t) [1, 4] does the source give for `N[C@@H](Cc1ccc(O)c(O)c1)C(=O)O` [Levodopa, L-3,4-dihydroxyphenylalanine] here?
A: The AUC(0-t) was 8640 ± 2060 ng·h/mL.

Q: What about the AUC(0-t) [1, 5] of the same compound?
A: Its AUC(0-t) is 7000 ± 3830 ng·h/mL.

Q: What about the AUC(0-t) [1, 6] of the same compound?
A: Its AUC(0-t) is 3900 ± 298 ng·h/mL.

Q: And the “increase in AUC0-24” value [1]?
A: Its value is about 100%.

Q: And the “increase in peak concentrations” value [1]?
A: The value was about 100%.

Reference: patent publication US20100316712A1, “PHARMACEUTICAL COMPOSITIONS FOR TREATMENT OF PARKINSON'S DISEASE AND RELATED DISORDERS” (Combinatorx, Incorporated, priority 2006, published 2010)
